In US8415469B2, “Compounds and methods for kinase modulation, and indications therefor” (Plexxikon Inc., priority 2005, dated 2013):

What was measured:
Assay type in all cases: biochemical
[1] = molecular target: T1, FGFR1 (Homo sapiens, UniProt P11362, C488A/C584S); experiment: AlphaScreen kinase assay, FGFR1; conditions: read-out: IC50, activity toward kinase FGFR
T1 construct: P1351.pET N6 BI-PTP FGFR A458-E765-X C488A, C584S; made in house; host or cells: E. coli (PTP1B co-expressed)

[2] = molecular target: Csk (Homo sapiens, UniProt P41240); experiment: AlphaScreen kinase assay, Csk; conditions: read-out: IC50, activity toward kinase Csk
Excerpt: (§1) AlphaScreen assay was used to screen additional kinases. The assay is similarly dependent on the phosphorylation of a peptide substrate. In this assay, an antibody that recognizes phosphorylated substrate is bound to an acceptor bead. The peptide substrate is attached to biotin, which binds to a donor head that contains streptavidin. Thus phosphorylated substrate is bound by antibody and streptavidin, bringing the donor and acceptor heads into close proximity when kinase is not inhibited. The donor produces singlet oxygen which results in emission from the acceptor when they are in close proximity. Conversely, when kinase is inhibited, the donor and acceptor beads are not associated and the emission from the acceptor is reduced.
(§2) AlphaScreen assays were done using compounds dissolved in DMSO to a concentration of 20 mM. The compounds were diluted accordingly to the desired final concentrations in each sample well, using 1:3 serial dilution for a total of 8 concentration points.

[3] = molecular target: T2, Src (Homo sapiens, UniProt P12931); experiment: AlphaScreen kinase assay, Src; conditions: read-out: IC50, activity toward kinase Src
T2 construct: P1144. pET-N6 BI-PTP SRC V86-L536-X; made in house
T2 sequence (P12931 with tags, fused parts or gaps): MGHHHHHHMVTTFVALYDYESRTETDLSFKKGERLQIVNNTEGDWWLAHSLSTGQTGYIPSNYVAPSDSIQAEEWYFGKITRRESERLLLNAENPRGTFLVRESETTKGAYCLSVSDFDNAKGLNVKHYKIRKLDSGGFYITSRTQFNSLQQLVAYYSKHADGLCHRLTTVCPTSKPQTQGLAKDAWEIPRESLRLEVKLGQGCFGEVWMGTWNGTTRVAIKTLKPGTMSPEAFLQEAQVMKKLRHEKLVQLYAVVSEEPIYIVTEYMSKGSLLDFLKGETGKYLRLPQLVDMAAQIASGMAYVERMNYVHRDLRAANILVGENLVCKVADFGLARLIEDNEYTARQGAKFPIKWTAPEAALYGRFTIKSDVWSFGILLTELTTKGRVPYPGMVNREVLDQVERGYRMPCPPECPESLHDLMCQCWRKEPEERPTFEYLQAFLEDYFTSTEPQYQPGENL

[4] = molecular target: Frk (Homo sapiens, UniProt P42685); experiment: AlphaScreen kinase assay, Frk; conditions: read-out: IC50, activity toward kinase Frk
Excerpt: as §1, §2

[5] = molecular target: Brk (Homo sapiens, UniProt Q13882); experiment: AlphaScreen kinase assay, Brk; conditions: read-out: IC50, activity toward kinase Brk
Sequence of Brk (Q13882 whole entry): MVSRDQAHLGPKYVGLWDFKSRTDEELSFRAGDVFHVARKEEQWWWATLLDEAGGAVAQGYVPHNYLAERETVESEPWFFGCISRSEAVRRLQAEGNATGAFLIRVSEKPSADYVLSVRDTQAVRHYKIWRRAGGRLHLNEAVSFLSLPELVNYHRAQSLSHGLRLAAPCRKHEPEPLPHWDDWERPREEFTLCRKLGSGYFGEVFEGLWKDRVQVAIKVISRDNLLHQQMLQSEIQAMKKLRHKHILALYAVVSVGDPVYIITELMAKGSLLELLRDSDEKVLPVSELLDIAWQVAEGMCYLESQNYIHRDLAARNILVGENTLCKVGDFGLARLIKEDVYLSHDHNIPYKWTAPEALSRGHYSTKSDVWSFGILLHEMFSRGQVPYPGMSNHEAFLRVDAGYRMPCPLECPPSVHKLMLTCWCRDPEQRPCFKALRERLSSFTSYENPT
Excerpt: as §1, §2

[6] = molecular target: T3, B-Raf (Homo sapiens, UniProt P15056); experiment: AlphaScreen kinase assay, B-Raf; conditions: read-out: IC50, activity toward kinase B-Raf
T3 construct: purchased Upstate Biotechnology
T3 sequence (P15056 whole entry): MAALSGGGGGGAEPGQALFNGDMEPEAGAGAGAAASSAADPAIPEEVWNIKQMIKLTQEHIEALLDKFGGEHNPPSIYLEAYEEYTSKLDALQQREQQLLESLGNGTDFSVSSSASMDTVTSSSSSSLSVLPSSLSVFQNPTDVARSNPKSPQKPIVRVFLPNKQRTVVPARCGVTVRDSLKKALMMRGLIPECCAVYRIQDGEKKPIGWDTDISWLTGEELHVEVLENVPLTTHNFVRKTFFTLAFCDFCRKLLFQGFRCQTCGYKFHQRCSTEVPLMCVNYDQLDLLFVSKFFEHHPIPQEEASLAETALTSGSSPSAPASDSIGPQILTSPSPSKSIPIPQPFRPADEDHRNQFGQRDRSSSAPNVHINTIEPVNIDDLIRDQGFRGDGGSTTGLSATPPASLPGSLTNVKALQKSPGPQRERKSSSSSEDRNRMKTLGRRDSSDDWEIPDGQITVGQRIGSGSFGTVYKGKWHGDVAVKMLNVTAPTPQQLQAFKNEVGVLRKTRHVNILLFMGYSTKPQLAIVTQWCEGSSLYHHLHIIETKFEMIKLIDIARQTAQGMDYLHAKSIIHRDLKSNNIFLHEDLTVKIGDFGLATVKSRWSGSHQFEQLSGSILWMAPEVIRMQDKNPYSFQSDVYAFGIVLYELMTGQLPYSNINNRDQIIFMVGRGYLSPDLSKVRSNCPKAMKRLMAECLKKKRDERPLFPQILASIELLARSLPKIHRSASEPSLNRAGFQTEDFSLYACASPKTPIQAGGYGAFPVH

[7] = molecular target: T4, Flt1 (Homo sapiens, UniProt P17948); experiment: AlphaScreen kinase assay, Flt1; conditions: read-out: IC50, activity toward kinase Flt1
T4 construct: P1826.pETN6 BI-PTP FLT1 M799-D1165-X WT; His6 (N); made in house; host or cells: E. coli (PTP1B co-expressed)
T4 sequence (P17948 with tags, fused parts or gaps): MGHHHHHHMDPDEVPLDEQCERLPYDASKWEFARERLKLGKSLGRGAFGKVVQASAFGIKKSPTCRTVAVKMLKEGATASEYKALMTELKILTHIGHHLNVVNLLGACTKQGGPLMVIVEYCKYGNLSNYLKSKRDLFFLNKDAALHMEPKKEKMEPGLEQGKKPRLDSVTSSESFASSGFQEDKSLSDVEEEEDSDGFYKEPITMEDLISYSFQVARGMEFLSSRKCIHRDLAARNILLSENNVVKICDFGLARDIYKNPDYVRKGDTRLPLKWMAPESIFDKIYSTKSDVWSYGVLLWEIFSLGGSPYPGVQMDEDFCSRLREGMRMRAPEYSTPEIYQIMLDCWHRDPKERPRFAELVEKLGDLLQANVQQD

[8] = molecular target: T5, B-Raf V600E (Homo sapiens, UniProt P15056, V600E); experiment: AlphaScreen kinase assay, B-Raf V600E; conditions: read-out: IC50, activity toward kinase B-Raf V600E
T5 construct: P4254. pFastBacBD-CDC37 BRAF D437-K722-X, V600E; His6 with pFastBac HT leader (TEV site) (N); made in house; host or cells: Sf9 (baculovirus; chaperone CDC37 co-expressed)
T5 sequence (P15056 with tags, fused parts or gaps V600E): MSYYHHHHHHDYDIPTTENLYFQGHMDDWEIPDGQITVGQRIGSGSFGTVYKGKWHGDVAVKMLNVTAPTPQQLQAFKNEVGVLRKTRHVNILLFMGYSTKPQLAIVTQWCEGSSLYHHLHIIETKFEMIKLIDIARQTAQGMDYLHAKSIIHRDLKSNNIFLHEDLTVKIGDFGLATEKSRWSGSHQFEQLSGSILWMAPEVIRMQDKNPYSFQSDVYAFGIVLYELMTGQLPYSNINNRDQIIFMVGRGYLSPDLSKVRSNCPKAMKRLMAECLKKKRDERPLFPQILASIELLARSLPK

[9] = molecular target: T6, c-Raf-1 (Homo sapiens, UniProt P04049); experiment: AlphaScreen kinase assay, c-Raf-1; conditions: read-out: IC50, activity toward kinase c-Raf-1
T6 construct: purchased Upstate Biotechnology
T6 sequence (P04049 whole entry): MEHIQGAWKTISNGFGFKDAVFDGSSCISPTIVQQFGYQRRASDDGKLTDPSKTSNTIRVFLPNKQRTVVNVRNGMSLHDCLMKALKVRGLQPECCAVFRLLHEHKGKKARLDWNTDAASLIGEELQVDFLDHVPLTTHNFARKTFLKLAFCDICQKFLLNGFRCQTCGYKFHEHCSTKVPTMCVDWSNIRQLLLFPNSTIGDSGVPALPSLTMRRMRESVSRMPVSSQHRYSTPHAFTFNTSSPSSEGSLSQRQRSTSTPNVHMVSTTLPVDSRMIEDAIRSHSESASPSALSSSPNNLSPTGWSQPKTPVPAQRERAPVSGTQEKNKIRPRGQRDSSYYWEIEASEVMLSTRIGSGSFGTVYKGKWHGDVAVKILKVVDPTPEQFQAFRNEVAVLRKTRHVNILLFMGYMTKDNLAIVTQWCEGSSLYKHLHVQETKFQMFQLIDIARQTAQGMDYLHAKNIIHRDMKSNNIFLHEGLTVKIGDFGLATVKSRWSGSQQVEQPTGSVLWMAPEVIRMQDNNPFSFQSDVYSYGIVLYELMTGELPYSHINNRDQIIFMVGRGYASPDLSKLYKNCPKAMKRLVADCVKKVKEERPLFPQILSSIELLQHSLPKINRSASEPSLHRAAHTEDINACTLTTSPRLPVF

[10] = molecular target: T7, Fms (Homo sapiens, UniProt P07333); experiment: AlphaScreen kinase assay, Fms; conditions: read-out: IC50, activity toward kinase Fms
T7 construct: purchased Upstate Biotechnology
T7 sequence (P07333 20-972): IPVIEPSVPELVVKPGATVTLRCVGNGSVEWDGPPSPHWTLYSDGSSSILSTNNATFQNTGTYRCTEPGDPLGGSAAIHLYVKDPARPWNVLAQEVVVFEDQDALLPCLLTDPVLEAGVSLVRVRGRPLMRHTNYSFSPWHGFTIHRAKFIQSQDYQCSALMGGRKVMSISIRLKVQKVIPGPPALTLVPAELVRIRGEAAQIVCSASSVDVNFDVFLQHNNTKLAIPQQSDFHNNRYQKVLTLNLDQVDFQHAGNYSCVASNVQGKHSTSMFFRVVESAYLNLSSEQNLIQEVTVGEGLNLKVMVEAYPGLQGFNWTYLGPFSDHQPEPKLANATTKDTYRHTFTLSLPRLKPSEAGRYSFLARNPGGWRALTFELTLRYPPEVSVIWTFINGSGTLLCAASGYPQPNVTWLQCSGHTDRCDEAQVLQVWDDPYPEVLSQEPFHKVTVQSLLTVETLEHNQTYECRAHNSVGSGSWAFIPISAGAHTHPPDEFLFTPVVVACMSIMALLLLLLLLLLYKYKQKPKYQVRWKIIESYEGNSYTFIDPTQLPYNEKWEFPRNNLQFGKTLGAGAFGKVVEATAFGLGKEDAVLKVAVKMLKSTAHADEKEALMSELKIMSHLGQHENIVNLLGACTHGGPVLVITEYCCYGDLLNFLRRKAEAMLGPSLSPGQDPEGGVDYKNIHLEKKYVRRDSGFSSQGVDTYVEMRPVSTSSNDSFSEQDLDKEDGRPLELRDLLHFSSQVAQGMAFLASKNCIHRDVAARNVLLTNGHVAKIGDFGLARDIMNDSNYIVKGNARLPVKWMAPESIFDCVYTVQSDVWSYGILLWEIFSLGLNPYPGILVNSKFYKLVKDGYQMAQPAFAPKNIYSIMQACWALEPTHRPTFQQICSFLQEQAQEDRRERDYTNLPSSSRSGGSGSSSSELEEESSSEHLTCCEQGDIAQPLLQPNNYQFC

[11] = molecular target: T8, Stk6 (Homo sapiens, UniProt O14965); experiment: Z'-Lyte FRET kinase assay (Invitrogen), Stk6; conditions: read-out: IC50, activity toward kinase Stk6
T8 construct: purchased Invitrogen (Carlsbad, Calif.), screening service
T8 sequence (O14965 1-403): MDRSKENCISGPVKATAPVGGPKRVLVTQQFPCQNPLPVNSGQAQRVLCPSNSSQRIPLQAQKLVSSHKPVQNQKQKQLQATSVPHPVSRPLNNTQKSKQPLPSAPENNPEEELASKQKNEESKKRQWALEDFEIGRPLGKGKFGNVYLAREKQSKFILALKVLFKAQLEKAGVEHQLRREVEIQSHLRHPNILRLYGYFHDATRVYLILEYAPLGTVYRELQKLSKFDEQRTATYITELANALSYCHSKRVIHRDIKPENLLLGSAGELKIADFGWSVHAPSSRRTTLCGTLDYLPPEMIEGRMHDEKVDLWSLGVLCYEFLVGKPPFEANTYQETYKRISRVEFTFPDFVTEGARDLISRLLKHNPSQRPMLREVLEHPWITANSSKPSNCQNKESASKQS

[12] = molecular target: T9, Kit (Homo sapiens, UniProt P10721); experiment: AlphaScreen kinase assay, Kit; conditions: read-out: IC50, activity toward kinase Kit
T9 construct: P1332.N6 BI PTP KIT M552-K948-X COD; His6 (N); made in house; host or cells: E. coli (PTP1B co-expressed)
T9 sequence (P10721 with tags, fused parts or gaps): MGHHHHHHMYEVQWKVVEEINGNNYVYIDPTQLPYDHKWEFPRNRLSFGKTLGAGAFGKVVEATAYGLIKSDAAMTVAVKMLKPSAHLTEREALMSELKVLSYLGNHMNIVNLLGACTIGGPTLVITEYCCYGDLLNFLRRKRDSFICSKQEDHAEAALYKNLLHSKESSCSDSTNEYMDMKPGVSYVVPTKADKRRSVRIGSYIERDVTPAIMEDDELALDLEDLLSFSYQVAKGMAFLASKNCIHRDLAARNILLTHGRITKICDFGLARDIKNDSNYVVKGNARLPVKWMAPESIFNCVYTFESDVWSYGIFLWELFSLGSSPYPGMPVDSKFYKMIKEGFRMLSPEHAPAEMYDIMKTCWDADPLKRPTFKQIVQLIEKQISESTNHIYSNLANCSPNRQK

[13] = molecular target: T10, Fak (Homo sapiens, UniProt Q05397); experiment: AlphaScreen kinase assay, Fak; conditions: read-out: IC50, activity toward kinase Fak
T10 construct: P1358.pFastBacHtb FAK S411-Q686-X; His6 with pFastBacHTb leader (TEV site) (N); made in house; host or cells: Sf9 (baculovirus)
T10 sequence (Q05397 411-686): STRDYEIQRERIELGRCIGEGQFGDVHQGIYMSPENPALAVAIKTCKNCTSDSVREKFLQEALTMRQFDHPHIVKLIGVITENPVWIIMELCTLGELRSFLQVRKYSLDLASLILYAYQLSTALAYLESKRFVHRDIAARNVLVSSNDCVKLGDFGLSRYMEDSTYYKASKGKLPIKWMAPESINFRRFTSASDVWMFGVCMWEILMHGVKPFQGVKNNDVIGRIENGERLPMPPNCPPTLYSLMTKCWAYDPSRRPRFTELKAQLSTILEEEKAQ

[14] = molecular target: T11, TEC (Homo sapiens, UniProt P42680); experiment: AlphaScreen kinase assay, TEC; conditions: read-out: IC50, activity toward kinase TEC
T11 sequence (P42680 1-631): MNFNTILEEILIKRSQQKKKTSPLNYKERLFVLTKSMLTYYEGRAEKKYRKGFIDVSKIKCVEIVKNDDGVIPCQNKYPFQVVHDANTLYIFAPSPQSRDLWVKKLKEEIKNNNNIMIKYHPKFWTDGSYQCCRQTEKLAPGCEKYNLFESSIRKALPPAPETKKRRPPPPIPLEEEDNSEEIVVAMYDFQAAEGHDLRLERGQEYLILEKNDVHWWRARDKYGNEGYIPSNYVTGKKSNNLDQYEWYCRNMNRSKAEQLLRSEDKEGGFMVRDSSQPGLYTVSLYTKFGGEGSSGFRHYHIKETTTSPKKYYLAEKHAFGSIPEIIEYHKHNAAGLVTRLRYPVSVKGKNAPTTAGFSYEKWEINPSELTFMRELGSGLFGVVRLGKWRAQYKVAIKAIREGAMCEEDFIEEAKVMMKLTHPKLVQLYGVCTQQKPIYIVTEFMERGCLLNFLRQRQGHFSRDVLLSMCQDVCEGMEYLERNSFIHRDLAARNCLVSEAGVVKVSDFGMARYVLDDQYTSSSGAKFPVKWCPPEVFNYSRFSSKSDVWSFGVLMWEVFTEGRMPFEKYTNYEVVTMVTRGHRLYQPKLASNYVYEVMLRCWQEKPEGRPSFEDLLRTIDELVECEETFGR
Excerpt: as §1, §2

[15] = molecular target: T12, Btk (Homo sapiens, UniProt Q06187); experiment: Z'-Lyte FRET kinase assay (Invitrogen), Btk; conditions: read-out: IC50, activity toward kinase Btk
T12 construct: purchased Invitrogen (assay run by Invitrogen)

[16] = molecular target: T13, Kdr (Homo sapiens, UniProt P35968); experiment: Z'-Lyte FRET kinase assay (Invitrogen), Kdr; conditions: read-out: IC50, activity toward kinase Kdr
T13 construct: purchased Invitrogen (assay run by Invitrogen)

[17] = molecular target: T14, Jnk1 (Homo sapiens, UniProt P45983); experiment: AlphaScreen kinase assay, Jnk1; conditions: read-out: IC50, activity toward kinase Jnk1
T14 construct: purchased Upstate Biotechnology
T14 sequence (P45983 whole entry): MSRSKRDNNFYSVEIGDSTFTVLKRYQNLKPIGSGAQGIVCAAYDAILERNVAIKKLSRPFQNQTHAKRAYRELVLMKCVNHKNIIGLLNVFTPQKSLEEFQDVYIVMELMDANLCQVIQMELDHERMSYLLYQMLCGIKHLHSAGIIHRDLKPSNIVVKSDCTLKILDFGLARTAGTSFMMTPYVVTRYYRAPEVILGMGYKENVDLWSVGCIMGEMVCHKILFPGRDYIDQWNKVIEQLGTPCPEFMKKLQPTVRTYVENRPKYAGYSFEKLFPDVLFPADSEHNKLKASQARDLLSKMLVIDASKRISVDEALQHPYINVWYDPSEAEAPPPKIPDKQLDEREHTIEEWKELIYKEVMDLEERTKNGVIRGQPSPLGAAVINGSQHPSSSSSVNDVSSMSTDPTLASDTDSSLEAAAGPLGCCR

[18] = molecular target: T15, Jnk3 (Homo sapiens, UniProt P53779); experiment: AlphaScreen kinase assay, Jnk3; conditions: read-out: IC50, activity toward kinase Jnk3
T15 construct: purchased Upstate Biotechnology

[19] = molecular target: Gsk3β (Homo sapiens, UniProt P49841); experiment: AlphaScreen kinase assay, Gsk3β; conditions: read-out: IC50, activity toward kinase Gsk3β
Summary of the method: (§3)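 Emission from acceptor beads reports phosphorylated biotin-peptide bridging antibody-coated acceptor and streptavidin donor beads; loss of signal reflects kinase inhibition. Eight-point, threefold dilution series prepared from 20 mM DMSO stocks.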

[20] = molecular target: MAP4K4 (Homo sapiens, UniProt O95819); experiment: AlphaScreen kinase assay, MAP4K4; conditions: read-out: IC50, activity toward kinase MAP4K4
[21] = molecular target: Plk1 (Homo sapiens, UniProt P53350); experiment: AlphaScreen kinase assay, Plk1; conditions: read-out: IC50, activity toward kinase Plk1
Summary of the method: as §3

T1 sequence (P11362 458-765 C488A/C584S): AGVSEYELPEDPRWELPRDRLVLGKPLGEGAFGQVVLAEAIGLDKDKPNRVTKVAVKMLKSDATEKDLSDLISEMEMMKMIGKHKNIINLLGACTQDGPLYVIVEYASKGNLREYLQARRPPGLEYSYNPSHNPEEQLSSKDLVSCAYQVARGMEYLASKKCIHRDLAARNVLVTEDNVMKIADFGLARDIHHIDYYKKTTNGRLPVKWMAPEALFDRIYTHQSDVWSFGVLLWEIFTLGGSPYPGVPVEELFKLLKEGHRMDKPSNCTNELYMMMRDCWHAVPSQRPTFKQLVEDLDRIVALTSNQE

IC50 [1] | IC50 [2] | IC50 [3] | IC50 [4] | IC50 [5] | IC50 [6] | IC50 [8] | IC50 [9] | IC50 [10] | IC50 [12] | IC50 [13] | IC50 [14] | Structure (SMILES) | further results
≤ 10 µM | ≤ 10 µM | ≤ 10 µM | ≤ 10 µM | ≤ 10 µM | ≤ 10 µM | ≤ 10 µM | ≤ 10 µM | ≤ 10 µM | – | – | – | CCCS(=O)(=O)Nc1ccc(Cl)c(C(=O)c2c[nH]c3ncc(Br)cc23)c1F [Compound P-0805, Propane-1-sulfonic acid [3-(5-bromo-1H-pyrrolo[2,3-b]pyridine-3-carbonyl)-4-chloro-2-fluoro-phenyl]-amide] | IC50 [7]: ≤ 10 µM
≤ 10 µM | ≤ 10 µM | ≤ 10 µM | ≤ 10 µM | ≤ 10 µM | ≤ 10 µM | ≤ 10 µM | ≤ 10 µM | ≤ 10 µM | ≤ 10 µM | ≤ 10 µM | – | CCCS(=O)(=O)Nc1cccc(C(=O)c2c[nH]c3ncc(Br)cc23)c1F [Compound P-0955, Propane-1-sulfonic acid [3-(5-bromo-1H-pyrrolo[2,3-b]pyridine-3-carbonyl)-2-fluoro-phenyl]-amide] | IC50 [11]: ≤ 10 µM
≤ 10 µM | ≤ 10 µM | ≤ 10 µM | ≤ 10 µM | ≤ 10 µM | ≤ 10 µM | ≤ 10 µM | ≤ 10 µM | – | – | ≤ 10 µM | ≤ 10 µM | O=C(c1c(F)ccc(NS(=O)(=O)N2CCCCC2)c1F)c1c[nH]c2ncc(Cl)cc12 [Compound P-1020, Piperidine-1-sulfonic acid [3-(5-chloro-1H-pyrrolo[2,3-b]pyridine-3-carbonyl)-2,4-difluoro-phenyl]-amide] | IC50 [15]: ≤ 10 µM
– | ≤ 10 µM | ≤ 10 µM | ≤ 10 µM | ≤ 10 µM | ≤ 10 µM | ≤ 10 µM | ≤ 10 µM | ≤ 10 µM | ≤ 10 µM | ≤ 10 µM | – | CCCS(=O)(=O)Nc1cccc(C(=O)c2c[nH]c3ncc(Cl)cc23)c1F [Compound P-1013, propane-1-sulfonic acid [3-(5-chloro-1H-pyrrolo[2,3-b]pyridine-3-carbonyl)-2-fluoro-phenyl]-amide] | IC50 [11]: ≤ 10 µM
≤ 10 µM | – | ≤ 10 µM | – | – | ≤ 10 µM | ≤ 10 µM | ≤ 10 µM | ≤ 10 µM | ≤ 10 µM | – | ≤ 10 µM | O=C(Nc1ccc(F)c(C(=O)c2c[nH]c3ncc(-c4cccnc4)cc23)c1F)NC1CCCC1 [Compound P-1317, 1-Cyclopentyl-3-[2,4-difluoro-3-(5-pyridin-3-yl-1H-pyrrolo[2,3-b]pyridine-3-carbonyl)-phenyl]-urea] | IC50 [18]: ≤ 10 µM; IC50 [19]: ≤ 10 µM; IC50 [17]: ≤ 10 µM; IC50 [20]: ≤ 10 µM; IC50 [7]: ≤ 10 µM; IC50 [15]: ≤ 10 µM
≤ 10 µM | – | – | – | – | ≤ 10 µM | ≤ 10 µM | ≤ 10 µM | ≤ 10 µM | ≤ 10 µM | – | ≤ 10 µM | O=C(c1c(F)ccc(NS(=O)(=O)c2ccccc2)c1F)c1c[nH]c2nccc(Cl)c12 [Compound P-0954, N-[3-(4-Chloro-1H-pyrrolo[2,3-b]pyridine-3-carbonyl)-2,4-difluoro-phenyl]-benzenesulfonamide] | IC50 [21]: ≤ 10 µM; IC50 [20]: ≤ 10 µM

Structure (SMILES) | IC50 [1] | IC50 [2] | IC50 [3] | IC50 [4] | IC50 [5] | IC50 [6] | IC50 [8] | IC50 [9] | IC50 [10] | IC50 [12] | IC50 [13] | IC50 [14] | further results
CCCS(=O)(=O)Nc1ccc(F)c(C(=O)c2c[nH]c3ncc(-c4ccc(Cl)cc4)cc23)c1F [Compound P-0956, Propane-1-sulfonic acid {3-[5-(4-chloro-phenyl)-1H-pyrrolo[2,3-b]pyridine-3-carbonyl]-2,4-difluoro-phenyl}-amide] | ≤ 10 µM | ≤ 10 µM | ≤ 10 µM | ≤ 10 µM | ≤ 10 µM | – | – | – | ≤ 10 µM | ≤ 10 µM | ≤ 10 µM | – | IC50 [16]: ≤ 10 µM; IC50 [17]: ≤ 10 µM
